Experimental data: US3989730A, “Bone-seeking technetium-99m complex” (priority 1973, dated 1976)
Where two headings read alike, the source gives them in different places.

Legend:
[1] = Simultaneous distribution of 99mTc-EHDP and 85Sr in rabbits at 1-24 hours after intravenous injection; type: in vivo, adult New Zealand albino rabbits; details: for Blood, % Dose in Whole Organ: blood as 7 % of body weight; for Bone(Avg), % dose in whole organ: bone as 10 % of body weight; for Marrow, % Dose in Whole Organ: marrow as 2.2 % of body weight; for Muscle, % Dose in Whole Organ: muscle as 43 % of body weight
Method: Adult New Zealand albino rabbits having an average weight of 3.8 kg were utilized. Strontium-85 was employed as a standard for comparison. […] Each dosage is contained in a volume of 1 ml.
Multiple samples were counted from the tibia, femur, spine and pelvic bones; the total activity in the skeleton was estimated by assuming the whole skeleton consisted of equal proportions by weight of tibia, spine, femur and pelvis and that the skeletal mass was 10% of the body weight. […] The whole liver and both kidneys were weighed and multiple samples from each were counted to measure the total activity in each organ.

[2] = system: callous of three week-old fractures of tibia; test: Localization in callous of three week-old tibial fractures (rabbits), compared with strontium-85; type: in vivo, albino rabbits
Method: Adult New Zealand albino rabbits having an average weight of 3.8 kg were utilized. Strontium-85 was employed as a standard for comparison. In a typical experiment 20-250 μCi (i.e., containing approximately 1 mg/kg as the free acid of body weight) of 99mTc EHDP were injected intravenously into the rabbits through the marginal ear vein and compared with 10-20 μ Ci 85 Sr chloride administered simutaneously. Each dosage is contained in a volume of 1 ml.
The animals were sacrificed serially from 1 to 24 hours after injection and the activities in major organs were determined by counting multiple samples from each organ in a scintillation well counter (the technetium-99m counts were corrected for the Compton contributions from the strontium-85 activity in the technetium-99m energy window). Multiple samples were counted from the tibia, femur, spine and pelvic bones; the total activity in the skeleton was estimated by assuming the whole skeleton consisted of equal proportions by weight of tibia, spine, femur and pelvis and that the skeletal mass was 10% of the body weight. The red marrow was sampled from the femur and the total marrow was assumed to be 2.2% of the total body weight. Similarly, blood volume was assumed to be 7% and the skeletal muscle 43% of the body weight. The whole liver and both kidneys were weighed and multiple samples from each were counted to measure the total activity in each organ.
In another series of experiments carried out as described above, localization of technetium from its tin-phosphonate complex was determined in the callous of three week-old fractures of tibia in albino rabbits, again in comparison with strontium-85. Comparative radioassay of technetium-99m administered as the pertechnetate was measured in the callous of tibial fractures in rabbits at one and four hours after administration.

[3] = 2 Hrs
[4] = radioactive decay; cited from earlier work

SMILES: [85Sr+2].[Cl-].[Cl-] [85Sr, reference compound]
- Bone(Avg), % dose / 1 % body weight ([1]; 1 Hr): 5.60 % dose / 1 % body weight
- Femur, % dose / 1 % body weight ([1]; 1 Hr): 4.90 % dose / 1 % body weight
- Kidneys, % Dose in Whole Organ ([1]; 1 Hr): 0.80 % dose
- Pelvis, % dose / 1 % body weight ([1]; 1 Hr): 7.07 % dose / 1 % body weight
- Spine, % dose / 1 % body weight ([1]; 1 Hr): 7.03 % dose / 1 % body weight
- Tibia, % dose / 1 % body weight ([1]; 1 Hr): 3.62 % dose / 1 % body weight
- Urine, % Dose ([1]; 1 Hr): 6.96 % dose
- Blood, % Dose in Whole Organ ([1]; 1 Hr): 11.9 % dose
- Bone(Avg), % dose in whole organ ([1]; 1 Hr): 56.0 % dose
- Marrow, % Dose in Whole Organ ([1]; 1 Hr): 0.91 % dose
- Muscle, % Dose in Whole Organ ([1]; 1 Hr): 13.4 % dose
- Bone(Avg), % dose / 1 % body weight ([1]; 2 Hrs): 6.44 % dose / 1 % body weight
- Femur, % dose / 1 % body weight ([1]; 2 Hrs): 5.74 % dose / 1 % body weight
- Kidneys, % Dose in Whole Organ ([1]; 2 Hrs): 0.64 % dose
- Pelvis, % dose / 1 % body weight ([1]; 2 Hrs): 7.70 % dose / 1 % body weight
- Spine, % dose / 1 % body weight ([1]; 2 Hrs): 7.59 % dose / 1 % body weight
- Tibia, % dose / 1 % body weight ([1]; 2 Hrs): 4.73 % dose / 1 % body weight
- Urine, % Dose ([1]; 2 Hrs): 18.0 % dose
- Blood, % Dose in Whole Organ ([1]; 2 Hrs): 7.08 % dose
- Bone(Avg), % dose in whole organ ([1]; 2 Hrs): 49.4 % dose
- Marrow, % Dose in Whole Organ ([1]; 2 Hrs): 0.76 % dose
- Muscle, % Dose in Whole Organ ([1]; 2 Hrs): 8.8 % dose
- Bone(Avg), % dose / 1 % body weight ([1]; 4 Hrs): 6.81 % dose / 1 % body weight
- Femur, % dose / 1 % body weight ([1]; 4 Hrs): 6.17 % dose / 1 % body weight
- Kidneys, % Dose in Whole Organ ([1]; 4 Hrs): 0.34 % dose
- Pelvis, % dose / 1 % body weight ([1]; 4 Hrs): 8.02 % dose / 1 % body weight
- Spine, % dose / 1 % body weight ([1]; 4 Hrs): 7.82 % dose / 1 % body weight
- Tibia, % dose / 1 % body weight ([1]; 4 Hrs): 5.13 % dose / 1 % body weight
- Urine, % Dose ([1]; 4 Hrs): 22.7 % dose
- Blood, % Dose in Whole Organ ([1]; 4 Hrs): 3.85 % dose
- Bone(Avg), % dose in whole organ ([1]; 4 Hrs): 68.1 % dose
- Marrow, % Dose in Whole Organ ([1]; 4 Hrs): 0.50 % dose
- Muscle, % Dose in Whole Organ ([1]; 4 Hrs): 6.46 % dose
- Bone(Avg), % dose / 1 % body weight ([1]; 24 Hrs): 5.21 % dose / 1 % body weight
- Femur, % dose / 1 % body weight ([1]; 24 Hrs): 4.83 % dose / 1 % body weight
- Kidneys, % Dose in Whole Organ ([1]; 24 Hrs): 0.03 % dose
- Marrow, % dose / 1 % body weight ([1]; 24 Hrs): 0.05 % dose / 1 % body weight
- Pelvis, % dose / 1 % body weight ([1]; 24 Hrs): 5.26 % dose / 1 % body weight
- Spine, % dose / 1 % body weight ([1]; 24 Hrs): 6.47 % dose / 1 % body weight
- Tibia, % dose / 1 % body weight ([1]; 24 Hrs): 4.27 % dose / 1 % body weight
- Blood, % Dose in Whole Organ ([1]; 24 Hrs): 0.29 % dose
- Bone(Avg), % dose in whole organ ([1]; 24 Hrs): 51.9 % dose
- Marrow, % Dose in Whole Organ ([1]; 24 Hrs): 0.10 % dose
- Muscle, % Dose in Whole Organ ([1]; 24 Hrs): 1.00 % dose
- Callus, % dose / 1 % body weight ([2]; 1 Hr): 31.2 % dose / 1 % body weight
- Callus, % dose / 1 % body weight ([2]; 4 Hrs): 37.7 % dose / 1 % body weight
- Blood, % Dose in Whole Organ ([3]; AEDP 0.01 mg/kg): 2.99 % Dose
- Kidneys, % Dose in Whole Organ ([3]; AEDP 0.01 mg/kg): 0.329 % Dose
- Liver, % Dose in Whole Organ ([3]; AEDP 0.01 mg/kg): 0.568 % Dose
- Marrow, % Dose in Whole Organ ([3]; AEDP 0.01 mg/kg): 0.465 % Dose
- Urine, % Dose ([3]; AEDP 0.01 mg/kg): 20.97 % Dose
- Blood, % Dose in Whole Organ ([3]; AEDP 0.05 mg/kg): 2.50 % Dose
- Kidneys, % Dose in Whole Organ ([3]; AEDP 0.05 mg/kg): 0.353 % Dose
- Liver, % Dose in Whole Organ ([3]; AEDP 0.05 mg/kg): 0.613 % Dose
- Marrow, % Dose in Whole Organ ([3]; AEDP 0.05 mg/kg): 0.486 % Dose
- Urine, % Dose ([3]; AEDP 0.05 mg/kg): 11.95 % Dose
- Blood, % Dose in Whole Organ ([3]; AEDP 0.1 mg/kg): 2.48 % Dose
- Kidneys, % Dose in Whole Organ ([3]; AEDP 0.1 mg/kg): 0.324 % Dose
- Liver, % Dose in Whole Organ ([3]; AEDP 0.1 mg/kg): 0.654 % Dose
- Marrow, % Dose in Whole Organ ([3]; AEDP 0.1 mg/kg): 0.244 % Dose
- Urine, % Dose ([3]; AEDP 0.1 mg/kg): 12.1 % Dose
- Blood, % Dose in Whole Organ ([3]; AEDP 0.5 mg/kg): 4.36 % Dose
- Kidneys, % Dose in Whole Organ ([3]; AEDP 0.5 mg/kg): 0.384 % Dose
- Liver, % Dose in Whole Organ ([3]; AEDP 0.5 mg/kg): 0.720 % Dose
- Urine, % Dose ([3]; AEDP 0.5 mg/kg): 10.47 % Dose
- Urine, % Dose ([3]; EHDP 0.01 mg/kg): 23.66 % Dose
- Urine, % Dose ([3]; EHDP 0.05 mg/kg): 13.4 % Dose
- Urine, % Dose ([3]; EHDP 0.1 mg/kg): 11.31 % Dose
- Urine, % Dose ([3]; EHDP 0.5 mg/kg): 19.6 % Dose
- Blood, % Dose in Whole Organ ([3]; MDP 0.01 mg/kg): 3.27 % Dose
- Kidneys, % Dose in Whole Organ ([3]; MDP 0.01 mg/kg): 0.34 % Dose
- Liver, % Dose in Whole Organ ([3]; MDP 0.01 mg/kg): 0.65 % Dose
- Marrow, % Dose in Whole Organ ([3]; MDP 0.01 mg/kg): 0.53 % Dose
- Muscle, % Dose in Whole Organ ([3]; MDP 0.01 mg/kg): 5.69 % Dose
- One Femur, % Dose in Whole Organ ([3]; MDP 0.01 mg/kg): 3.46 % Dose
- Urine, % Dose ([3]; MDP 0.01 mg/kg): 10.3 % Dose
- Blood, % Dose in Whole Organ ([3]; MDP 0.05 mg/kg): 3.66 % Dose
- Kidneys, % Dose in Whole Organ ([3]; MDP 0.05 mg/kg): 0.46 % Dose
- Liver, % Dose in Whole Organ ([3]; MDP 0.05 mg/kg): 0.71 % Dose
- Marrow, % Dose in Whole Organ ([3]; MDP 0.05 mg/kg): 0.53 % Dose
- Muscle, % Dose in Whole Organ ([3]; MDP 0.05 mg/kg): 5.89 % Dose
- One Femur, % Dose in Whole Organ ([3]; MDP 0.05 mg/kg): 2.53 % Dose
- Urine, % Dose ([3]; MDP 0.05 mg/kg): 23.16 % Dose
- Blood, % Dose in Whole Organ ([3]; MDP 0.1 mg/kg): 3.95 % Dose
- Kidneys, % Dose in Whole Organ ([3]; MDP 0.1 mg/kg): 0.66 % Dose
- Liver, % Dose in Whole Organ ([3]; MDP 0.1 mg/kg): 1.05 % Dose
- Marrow, % Dose in Whole Organ ([3]; MDP 0.1 mg/kg): 0.57 % Dose
- Muscle, % Dose in Whole Organ ([3]; MDP 0.1 mg/kg): 9.32 % Dose
- One Femur, % Dose in Whole Organ ([3]; MDP 0.1 mg/kg): 2.80 % Dose
- Urine, % Dose ([3]; MDP 0.1 mg/kg): 15.4 % Dose
- Blood, % Dose in Whole Organ ([3]; MDP 0.5 mg/kg): 3.11 % Dose
- Kidneys, % Dose in Whole Organ ([3]; MDP 0.5 mg/kg): 0.45 % Dose
- Liver, % Dose in Whole Organ ([3]; MDP 0.5 mg/kg): 0.69 % Dose
- Marrow, % Dose in Whole Organ ([3]; MDP 0.5 mg/kg): 0.67 % Dose
- Muscle, % Dose in Whole Organ ([3]; MDP 0.5 mg/kg): 5.65 % Dose
- One Femur, % Dose in Whole Organ ([3]; MDP 0.5 mg/kg): 2.96 % Dose
- Urine, % Dose ([3]; MDP 0.5 mg/kg): 15.16 % Dose
- half-life of radionuclide [4]: 65 days
